# From the supplement of paper PMC10307832
# What was measured:
# Experiment in all cases: relative viability (nuclei count vs DMSO), 5 days (fraction); higher = more cells survive
# Erlotinib + Decitabine = compound: C#Cc1cccc(Nc2ncnc3cc(OCCOC)c(OCCOC)cc23)c1 [Erlotinib] + Nc1ncn([C@H]2C[C@H](O)[C@@H](CO)O2)c(=O)n1 [Decitabine] (partner 2 µM)
# Outline: (§1)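 Five library-drug doses in √10 steps were combined with a fixed anchor-drug dose, or a single drug was given alone, by pin tool to lung cancer cell lines in 1536-well plates the day after seeding. Nuclei were stained and counted after 5 days. Relative viability is the nuclei count in treated wells over that in vehicle wells, taken as the median of duplicate plates.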
# AT9283 + OSI-027 = compound: O=C(Nc1c[nH]nc1-c1nc2ccc(CN3CCOCC3)cc2[nH]1)NC1CC1 [AT9283] + COc1cccc2cc(-c3nc([C@H]4CC[C@H](C(=O)O)CC4)n4ncnc(N)c34)[nH]c12 [OSI-027] (partner 0.5 µM)
# Outline: as §1
# Erlotinib + Crizotinib = compound: C#Cc1cccc(Nc2ncnc3cc(OCCOC)c(OCCOC)cc23)c1 [Erlotinib] + C[C@@H](Oc1cc(-c2cnn(C3CCNCC3)c2)cnc1N)c1c(Cl)ccc(F)c1Cl [Crizotinib] (partner 1 µM)
# Outline: as §1
# Erlotinib + Bortezomib = compound: C#Cc1cccc(Nc2ncnc3cc(OCCOC)c(OCCOC)cc23)c1 [Erlotinib] + CC(C)C[C@H](NC(=O)[C@H](Cc1ccccc1)NC(=O)c1cnccn1)B(O)O [Bortezomib] (partner 0.002 µM)
# Outline: as §1
# AT9283 + Dasatinib = compound: O=C(Nc1c[nH]nc1-c1nc2ccc(CN3CCOCC3)cc2[nH]1)NC1CC1 [AT9283] + Cc1nc(Nc2ncc(C(=O)Nc3c(C)cccc3Cl)s2)cc(N2CCN(CCO)CC2)n1 [Dasatinib] (partner 0.075 µM)
# Outline: as §1
Cell Line,relative viability (Erlotinib + Decitabine; first compound 0.02 µM),relative viability (Erlotinib + Decitabine; first compound 0.2 µM),relative viability (Erlotinib + Decitabine; first compound 0.6325 µM),relative viability (Erlotinib + Decitabine; first compound 2 µM),relative viability (AT9283 + OSI-027; first compound 0.003 µM),relative viability (AT9283 + OSI-027; first compound 0.03 µM),relative viability (AT9283 + OSI-027; first compound 0.09487 µM),relative viability (AT9283 + OSI-027; first compound 0.3 µM),relative viability (Erlotinib + Crizotinib; first compound 0.02 µM),relative viability (Erlotinib + Crizotinib; first compound 0.2 µM),relative viability (Erlotinib + Crizotinib; first compound 0.6325 µM),relative viability (Erlotinib + Crizotinib; first compound 2 µM),relative viability (Erlotinib + Bortezomib; first compound 0.02 µM),relative viability (Erlotinib + Bortezomib; first compound 0.2 µM),relative viability (Erlotinib + Bortezomib; first compound 0.6325 µM),relative viability (Erlotinib + Bortezomib; first compound 2 µM),relative viability (AT9283 + Dasatinib; first compound 0.003 µM),relative viability (AT9283 + Dasatinib; first compound 0.03 µM),relative viability (AT9283 + Dasatinib; first compound 0.09487 µM),relative viability (AT9283 + Dasatinib; first compound 0.3 µM)
A-427,0.585,0.562,0.592,0.582,0.421,0.326,0.159,0.176,0.966,1.03,0.887,0.838,1.01,1.04,1.1,0.951,0.698,0.402,0.124,0.131
ABC-1,,0.962,0.923,1.12,0.436,0.245,0.213,0.201,1.07,1.14,1.44,1.18,0.25,0.355,0.328,0.287,0.498,0.178,0.196,0.207
BEN,0.711,0.72,0.841,0.66,0.31,0.296,0.24,0.219,0.957,0.738,0.913,0.779,0.644,0.864,1.28,0.886,0.256,0.369,0.311,0.14
COR-L23,0.425,0.432,0.49,0.434,0.755,0.658,0.245,0.153,0.718,0.681,0.666,0.614,1.12,1.15,1.23,0.839,0.503,0.207,0.0898,0.101
COR-L 105,0.729,0.463,0.41,0.351,0.606,0.292,0.284,0.231,,0.656,0.39,0.198,0.828,0.342,0.407,0.335,0.327,0.181,0.197,0.185
ChaGo-K-1,0.528,0.51,0.496,0.518,0.54,0.575,0.279,0.189,1.24,1.16,1.2,1.1,0.847,1.09,1.23,0.749,0.547,0.504,0.225,0.257
EKVX,0.341,0.232,0.234,0.212,0.661,0.655,0.503,0.26,1.04,0.457,0.287,0.147,1.13,0.513,0.323,0.17,0.501,0.413,0.241,0.195
EMC-BAC-2,,0.882,0.951,0.82,0.369,0.325,0.197,0.149,0.806,0.68,0.83,0.63,1.09,0.972,1.05,,0.273,0.245,0.131,0.142
EPLC-272H,0.362,0.332,0.324,0.316,0.287,0.312,0.209,0.224,0.911,0.957,0.884,0.596,,0.875,0.989,0.828,0.342,0.307,0.106,0.103
H3255,,0.433,0.244,0.168,0.683,0.659,0.548,0.306,0.999,0.509,0.305,0.136,0.99,0.758,0.244,0.179,0.323,0.316,0.331,0.235
HARA,0.69,0.49,0.374,0.353,0.612,0.327,0.073,0.0736,1.04,0.983,0.79,0.505,1.2,1.01,0.959,0.867,0.27,0.235,0.0621,0.0732
HCC-15,0.642,0.623,0.644,0.563,0.61,0.412,0.153,0.157,0.784,0.833,0.936,0.7,1.01,1.12,1.12,0.969,0.587,0.221,0.112,0.112
HCC-78,0.728,0.743,0.705,0.584,0.519,0.304,0.271,0.276,0.266,0.254,0.271,0.217,0.452,0.333,0.496,0.302,0.291,0.322,0.201,0.216
HCC-366,0.353,0.324,0.335,0.264,0.834,0.845,0.048,0.0995,0.49,0.524,0.736,0.502,,1.08,1.1,1.06,0.619,0.566,0.104,0.053
HCC-827,0.21,0.215,0.111,0.169,0.694,0.647,0.597,0.181,0.371,0.195,0.174,0.177,0.526,0.343,0.276,0.35,0.271,0.266,0.26,0.205
HOP-62,0.232,0.221,0.187,0.241,0.868,0.792,0.53,0.253,0.885,0.989,0.965,0.972,1.08,0.5,0.316,1.02,0.666,0.58,0.295,0.186

Cell Line,relative viability (Erlotinib + Decitabine; first compound 0.02 µM),relative viability (Erlotinib + Decitabine; first compound 0.2 µM),relative viability (Erlotinib + Decitabine; first compound 0.6325 µM),relative viability (Erlotinib + Decitabine; first compound 2 µM),relative viability (AT9283 + OSI-027; first compound 0.003 µM),relative viability (AT9283 + OSI-027; first compound 0.03 µM),relative viability (AT9283 + OSI-027; first compound 0.09487 µM),relative viability (AT9283 + OSI-027; first compound 0.3 µM),relative viability (Erlotinib + Crizotinib; first compound 0.02 µM),relative viability (Erlotinib + Crizotinib; first compound 0.2 µM),relative viability (Erlotinib + Crizotinib; first compound 0.6325 µM),relative viability (Erlotinib + Crizotinib; first compound 2 µM),relative viability (Erlotinib + Bortezomib; first compound 0.02 µM),relative viability (Erlotinib + Bortezomib; first compound 0.2 µM),relative viability (Erlotinib + Bortezomib; first compound 0.6325 µM),relative viability (Erlotinib + Bortezomib; first compound 2 µM),relative viability (AT9283 + Dasatinib; first compound 0.003 µM),relative viability (AT9283 + Dasatinib; first compound 0.03 µM),relative viability (AT9283 + Dasatinib; first compound 0.09487 µM),relative viability (AT9283 + Dasatinib; first compound 0.3 µM)
LC-2-ad,0.889,0.79,0.735,0.656,0.766,0.476,0.249,0.229,0.468,0.509,0.458,0.329,1.02,1.02,,0.868,0.456,0.291,0.177,0.187
LCLC-97TM1,0.224,0.254,0.234,0.256,0.539,0.288,0.0798,0.108,0.44,,0.376,0.487,0.528,0.747,0.529,0.464,0.798,0.492,0.255,0.162
LCLC-103H,0.765,0.688,0.716,0.639,0.396,0.451,0.415,0.276,1.04,1.09,1.16,1.04,1.16,1.2,1.1,0.992,0.433,0.486,0.428,0.296
LOU-NH91,0.715,0.626,0.688,0.602,0.697,0.698,0.599,0.388,0.601,0.54,0.55,0.499,0.525,0.497,0.484,0.458,0.524,0.562,0.366,0.296
LU99A,,0.92,0.983,0.765,0.297,0.233,0.166,0.155,0.612,0.607,0.64,0.432,1.34,1.1,1.24,0.899,0.546,0.195,0.229,0.247
LXF-289,0.448,0.398,0.363,0.383,0.81,0.769,0.166,0.0735,0.818,0.828,0.761,0.711,0.964,0.999,0.921,0.857,0.227,0.106,0.0281,0.029
NCI-H23,0.312,0.293,0.324,0.337,0.666,0.674,0.344,0.281,0.565,0.481,0.601,0.433,0.915,,1.32,0.917,0.726,0.67,0.464,0.327
NCI-H322M,0.718,0.582,0.55,0.545,0.396,0.306,0.472,0.464,0.786,0.707,0.668,0.322,1.21,1.17,1.12,0.57,0.257,0.236,0.224,0.223
NCI-H460,0.508,0.433,0.505,0.47,0.678,0.81,0.248,0.0423,1.08,0.763,1.26,0.74,1.09,1.12,1.52,1.09,0.395,0.495,0.265,0.0688
NCI-H520,0.593,0.504,0.519,0.564,0.256,0.198,0.185,0.172,0.683,0.9,0.987,0.68,0.75,0.261,0.722,0.455,0.2,0.174,0.147,0.145
NCI-H596,1.21,0.926,0.999,0.985,0.704,0.779,0.665,0.476,0.952,0.961,1.02,0.828,1.01,0.993,1.09,0.93,0.59,0.597,0.565,0.297
NCI-H647,0.422,0.392,0.442,0.456,0.782,0.524,0.173,0.132,1.2,1.09,1.26,0.811,1.05,0.961,1.36,0.795,0.15,0.114,0.036,0.0661
NCI-H650,0.34,0.313,0.303,0.307,0.519,0.528,0.379,0.169,0.735,0.803,0.903,0.662,0.749,0.88,0.958,,0.425,0.433,0.219,0.175
NCI-H661,0.566,,0.551,0.384,0.767,0.529,0.313,0.344,1.16,,1.04,0.97,0.887,0.555,0.881,0.646,0.862,0.355,0.307,0.26
NCI-H727,0.898,0.596,0.92,0.731,0.657,0.483,0.487,0.324,0.736,0.725,0.574,0.552,0.785,0.844,1,0.701,0.423,0.467,0.314,0.245
NCI-H838,0.507,0.48,0.488,0.465,0.471,0.496,0.178,0.195,0.953,0.838,0.907,0.693,0.8,0.491,1.18,0.694,0.302,0.255,0.222,0.188
